Literature values as cited in patent US7875460B2, “Method for determining the effectiveness of stabilized chlorine dioxide in a mouth rinse” (priority 2007, dated 2011).

What was measured:
bacteria = conditions: exposures as short as 10 seconds
[1] = in vivo

For `[O][Cl+][O-]` [chlorine dioxide], the reduction in bacteria (bacteria) is given as “dramatic reduction in bacteria”, the “effects on haematology, blood biochemistry, or organ weights” value (Sprague-Dawley rats; 0, 2, 4, 6, 12 mg/kg/day (male) and 0, 2, 5, 8, 15 mg/kg/day (female) in drinking-water for 90 days) is given as “no toxicologically significant effects” and the “target tissue identified: nasal cavity findings” value (Sprague-Dawley rats; drinking-water for 90 days) is given as “increased incidence of goblet cell hyperplasia, squamous metaplasia, and inflammatory responses”. For the same molecule, the deaths (Sprague-Dawley rats; exposures as high as 11.5 mg/kg/day (male) and 14.9 mg/kg/day (female)) was “no deaths were reported” and the “decrease in VSCs in expired mouth air” value [1] was “remarkable decrease in VSCs”.
